“And” between values parts separate entries of the source, which are not always exact repeats. Equal entries are not always repeated.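 A five-concentration, 48-hour dose response in 96-well plates underlies each endpoint, interpolated linearly between surrounding concentrations. Abbreviation: GI50, concentration required for 50% inhibition of growth. TGI: concentration producing complete growth inhibition.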
Experiments:
Assay in all cases: NCI tumour cell line growth inhibition, 48 h
[1] = system: SK-MEL-2 melanoma
[2] = system: MCF7 breast
[3] = system: SW-620 colon
[4] = system: RXF 393 renal
[5] = system: SF-295 CNS
[6] = system: HCT-15 colon
[7] = system: SK-OV-3 ovarian
[8] = system: T-47D breast

Row | Structure (SMILES) | GI50 [1] | TGI [1] | GI50 [2] | TGI [2] | GI50 [3] [µM] | TGI [3] [µM] | GI50 [4] | TGI [4] | GI50 [5] | TGI [5] | GI50 [6] | TGI [6] [µM] | GI50 [7] | TGI [7] | GI50 [8] | TGI [8]
1 | Cc1cc(N)cc(C)c1-c1c(Br)cc(N)cc1Br | 4.14 µM | 21.1 µM | 4.54 µM | > 100 µM | 3.68 | > 100 | 2.57 µM | 6.91 µM | 2.76 µM | 12.1 µM | 4.77 µM | > 100 | 3.62 µM | 12.2 µM | 4.11 µM | 20.3 µM
2 | O=C(CSc1ncc(-c2ccccc2)n1-c1ccccc1)Nc1ccc(-c2nc3ccccc3s2)cc1 | 12 µM | 73.2 µM | 3.98 µM | > 100 µM | – | – | 11.2 µM | 47.4 µM | 3.53 µM | > 100 µM | > 100 µM | > 100 | 55.7 µM | > 100 µM | 4.51 µM | > 100 µM
3 | Fc1ccc(C2C3CCOc4c(ccc5ccccc45)C3=NN2c2ccccc2)cc1 (stereo not given) | > 100 µM | > 100 µM | > 85.4 µM | > 100 µM | > 100 | > 100 | > 63.6 µM | > 100 µM | 20.7 µM | > 100 µM | 9.34 µM | > 100 | > 100 µM | > 100 µM | 25.4 µM | > 94.8 µM
4 | CCCc1n(Cc2ccc3ccccc3n2)cc[n+]1Cc1ccc2ccccc2n1 | 1.52 µM | 5.68 µM | 1.25 µM | 11.9 µM | 3.63 | 25 | 9.08 µM | 35.4 µM | 3.57 µM | 15.7 µM | 37.9 µM | > 100 | 2.44 µM | 9.68 µM | 0.416 µM | 5.03 µM
5 | COc1ccc2nc3cc(Cl)ccc3c(Nc3cc(C(C)C)c(O)cc3C)c2c1 | 1.85 µM | 3.75 µM | 1.66 µM | 3.96 µM | 1.77 | 3.37 | 1.28 µM | 2.9 µM | 1.36 µM | 3.01 µM | 1.7 µM | 3.62 | 2.39 µM | 6.88 µM | 1.92 µM | 4.68 µM
6 | COC(=O)c1ccc2c(C(=Nc3ccc(N(C)C(=O)CN4CCN(C)CC4)cc3)c3ccccc3)c(O)[nH]c2c1 | 8.11 µM and 3.6 µM | 19.1 µM and 8.86 µM | 1.55 µM and 4.48 µM | 13.6 µM and > 100 µM | 1.87 | 4.14 | 0.683 µM and 0.572 µM | 2.47 µM and 2.9 µM | 4.46 µM and 10.8 µM | 13.1 µM and > 56.9 µM | 2.22 µM and 5.45 µM | > 100 | 12.3 µM and > 57.6 µM | 44.1 µM and > 100 µM | 3.66 µM and 16.7 µM | 36.3 µM and > 100 µM
7 | COc1ccc(-c2nc3sccn3c2-c2ccnc(NCCCNS(=O)(=O)c3ccc(F)cc3)n2)cc1 | 2.32 µM | 6.75 µM | 2.48 µM | 8.66 µM | 3.87 | 44.4 | 3.13 µM | 13.1 µM | 2.8 µM | 8.55 µM | 2.4 µM | 10.6 | 3.93 µM | > 100 µM | 0.866 µM | 4.87 µM

— PubChem BioAssay (NCI)
